Test results published in US12139520B2 (priority 2020, dated 2024).
Bridge positions count the residues as written; N and C are the ends. Square brackets hold non-standard residues; d marks the D form. Peptide text beside a SMILES is read from it. Hyp = O=C(O)[C@@H]1C[C@@H](O)CN1; Cit = NC(=O)NCCC[C@H](N)C(=O)O

What was measured:
hAM1 receptor = hAM1 receptor (Homo sapiens, UniProt O60895+Q16602); test: cAMP assay for in vitro receptor activation, hAM1-R; assay type: cell-based; settings: cAMP assay, hAM1 receptor; read-out: hAM1R EC50
Summary of the method: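 Read-out is intracellular cAMP as a measure of receptor activation. Cells stably overexpressing hAM1 were subcloned to a monoclonal line, then thawed and seeded at 8000 cells/well in DPBS with 0.05% casein and the phosphodiesterase inhibitor IBMX at 0.5 mM.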

[1] = Physical stability of peptide analogues (Thioflavin T fibrillation); assay type: physicochemical; settings: maximum ThT signal normalized between hAMY maximum and buffer background; 40° C., shaking, four days; pH 7 per table title
Summary of the method: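 1 h in 50 mM NaOAc pH 4 / 50 mM NaPi pH 7; + ThT 4 μM final; 40 °C, 700 rpm linear shake 5 min pre-read; ex 450, em 480 nm q10 min × 4 d; LOESS smoothing; max signal normalised to hAMY max vs buffer blank.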

hAMY3 receptor = biological target: T1, hAMY3 receptor (Homo sapiens, UniProt O60896+P30988); test: cAMP assay for in vitro receptor activation, hAMY3-R; assay type: cell-based; settings: cAMP assay, hAMY3 receptor; read-out: hAMY3R EC50
T1 sequence (P30988 25-474): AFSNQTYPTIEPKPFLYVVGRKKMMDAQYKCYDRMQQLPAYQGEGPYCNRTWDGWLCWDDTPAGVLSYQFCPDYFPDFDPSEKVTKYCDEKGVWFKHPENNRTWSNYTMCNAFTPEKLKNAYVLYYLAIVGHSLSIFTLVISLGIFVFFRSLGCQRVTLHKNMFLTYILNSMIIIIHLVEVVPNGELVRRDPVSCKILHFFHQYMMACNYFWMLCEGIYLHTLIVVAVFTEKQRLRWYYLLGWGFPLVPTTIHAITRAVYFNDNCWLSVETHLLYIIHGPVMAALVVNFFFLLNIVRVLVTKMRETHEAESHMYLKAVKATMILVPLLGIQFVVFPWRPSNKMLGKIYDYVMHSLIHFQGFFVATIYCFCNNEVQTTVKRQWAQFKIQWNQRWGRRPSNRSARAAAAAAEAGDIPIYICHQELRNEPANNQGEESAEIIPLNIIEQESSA
T1 sequence (O60896 24-148 partner): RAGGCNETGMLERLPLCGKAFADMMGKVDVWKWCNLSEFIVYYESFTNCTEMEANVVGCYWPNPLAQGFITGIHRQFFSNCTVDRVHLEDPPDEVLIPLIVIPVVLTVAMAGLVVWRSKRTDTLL
Summary of the method: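 Monoclonal cell line stably overexpressing human AMY3 receptor, 2000 cells/well in DPBS with 0.05% casein and 0.5 mM IBMX. Stimulated 30 min at room temperature with graded compound doses, human amylin as positive control. cAMP accumulation read by TR-FRET after one hour.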

Chain of hAM1 receptor (Q16602 23-461): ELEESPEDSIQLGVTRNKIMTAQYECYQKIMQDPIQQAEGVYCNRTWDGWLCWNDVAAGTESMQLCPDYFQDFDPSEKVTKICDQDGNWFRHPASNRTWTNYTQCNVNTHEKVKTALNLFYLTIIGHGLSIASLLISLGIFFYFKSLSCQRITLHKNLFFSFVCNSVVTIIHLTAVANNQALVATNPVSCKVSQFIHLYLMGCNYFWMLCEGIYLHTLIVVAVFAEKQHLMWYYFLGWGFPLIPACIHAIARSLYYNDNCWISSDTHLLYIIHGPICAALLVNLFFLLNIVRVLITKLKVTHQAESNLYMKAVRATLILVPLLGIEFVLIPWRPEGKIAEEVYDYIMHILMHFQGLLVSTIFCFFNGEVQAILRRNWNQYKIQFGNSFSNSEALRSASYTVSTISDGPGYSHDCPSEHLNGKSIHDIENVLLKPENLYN
Chain of hAM1 receptor (O60895 43-175 partner): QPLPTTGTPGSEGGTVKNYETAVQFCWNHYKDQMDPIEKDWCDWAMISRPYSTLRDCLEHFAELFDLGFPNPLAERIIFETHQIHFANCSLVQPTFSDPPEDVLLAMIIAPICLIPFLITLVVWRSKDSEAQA

SMILES	EC50 (hAM1 receptor)	Max ThT signal (%) [1]	EC50 (hAMY3 receptor)
CC[C@H](C)[C@H](NC(=O)[C@H](CCC(N)=O)NC(=O)[C@H](Cc1c[nH]cn1)NC(=O)[C@H](C)NC(=O)[C@H](CC(C)C)NC(=O)[C@H](CCCNC(N)=O)NC(=O)[C@H](CCC(N)=O)NC(=O)[C@@H](NC(=O)[C@@H](NC(=O)[C@@H]1CSSC[C@H](NC(=O)[C@@H](N)CCCCN)C(=O)N[C@@H](CC(N)=O)C(=O)N[C@@H]([C@@H](C)O)C(=O)N[C@@H](C)C(=O)N[C@@H]([C@@H](C)O)C(=O)N1)[C@@H](C)O)C(C)C)C(=O)N[C@@H](Cc1ccc(O)cc1)C(=O)N[C@@H](CCC(N)=O)C(=O)N[C@@H](C)C(=O)N[C@H](C(=O)N[C@@H](CC(=O)O)C(=O)N[C@@H](CCCCN)C(=O)N[C@@H](CC(=O)O)C(=O)N[C@@H](CCCCN)C(=O)N[C@@H](CC(=O)O)C(=O)N[C@@H](CC(N)=O)C(=O)N[C@H](C(=O)N[C@@H](C)C(=O)N1CCC[C@H]1C(=O)N1CCC[C@H]1C(=O)N[C@H](C(=O)N[C@@H](CC(N)=O)C(=O)N[C@H](C(=O)NCC(=O)N[C@@H](CO)C(=O)N[C@@H](CC(N)=O)C(=O)NCC(=O)N1C[C@H](O)C[C@H]1C(N)=O)C(C)C)[C@@H](C)O)C(C)C)[C@@H](C)O [compound 276] (H-KCNTATCTVQ[Cit]LAHQIYQATDKDKDNVAPPTNVGSNG[Hyp]-NH2; disulfide 2-7; N-terminus assumed)	> 5000 nM	8.950%	0.056 nM
CC[C@H](C)[C@H](NC(=O)[C@H](CCC(N)=O)NC(=O)[C@H](Cc1c[nH]cn1)NC(=O)[C@H](C)NC(=O)[C@H](CC(C)C)NC(=O)[C@H](CCCNC(=N)N)NC(=O)[C@H](CCC(N)=O)NC(=O)[C@@H](NC(=O)[C@@H](NC(=O)[C@@H]1CSSC[C@H](NC(=O)[C@@H](N)CCCCN)C(=O)N[C@@H](CC(N)=O)C(=O)N[C@@H]([C@@H](C)O)C(=O)N[C@@H](C)C(=O)N[C@@H]([C@@H](C)O)C(=O)N1)[C@@H](C)O)C(C)C)C(=O)N[C@@H](Cc1ccc(O)cc1)C(=O)N[C@@H](CCC(N)=O)C(=O)N[C@@H](Cc1ccccc1)C(=O)N[C@H](C(=O)N[C@@H](CC(=O)O)C(=O)N[C@@H](CCCCN)C(=O)N[C@@H](CC(=O)O)C(=O)N[C@@H](CCCCN)C(=O)N[C@@H](CC(=O)O)C(=O)N[C@@H](CC(N)=O)C(=O)N[C@@H](C)C(=O)N[C@@H](C)C(=O)N1CCC[C@H]1C(=O)N1CCC[C@H]1C(=O)N[C@H](C(=O)N[C@@H](CC(N)=O)C(=O)N[C@H](C(=O)NCC(=O)N[C@@H](CO)C(=O)N[C@@H](CC(N)=O)C(=O)NCC(=O)N1C[C@H](O)C[C@H]1C(N)=O)C(C)C)[C@@H](C)O)[C@@H](C)O [compound 27] (H-KCNTATCTVQRLAHQIYQFTDKDKDNAAPPTNVGSNG[Hyp]-NH2; disulfide 2-7; N-terminus assumed)	> 5000 nM	21.80%	0.008 nM
CC[C@H](C)[C@H](NC(=O)[C@H](CCC(N)=O)NC(=O)[C@H](Cc1c[nH]cn1)NC(=O)[C@H](C)NC(=O)[C@H](CC(C)C)NC(=O)[C@H](CCCNC(=N)N)NC(=O)[C@H](CCC(N)=O)NC(=O)[C@@H](NC(=O)[C@@H](NC(=O)[C@@H]1CSSC[C@H](NC(=O)[C@@H](N)CCCCN)C(=O)N[C@@H](CC(N)=O)C(=O)N[C@@H]([C@@H](C)O)C(=O)N[C@@H](C)C(=O)N[C@@H]([C@@H](C)O)C(=O)N1)[C@@H](C)O)C(C)C)C(=O)N[C@@H](Cc1ccc(O)cc1)C(=O)N[C@@H](CCC(N)=O)C(=O)N[C@@H](Cc1ccccc1)C(=O)N[C@H](C(=O)N[C@@H](CC(=O)O)C(=O)N[C@@H](C)C(=O)N[C@@H](CC(=O)O)C(=O)N[C@@H](CCCCN)C(=O)N[C@@H](CC(=O)O)C(=O)N[C@@H](CC(N)=O)C(=O)N[C@H](C(=O)N[C@@H](C)C(=O)N1CCC[C@H]1C(=O)N1CCC[C@H]1C(=O)N[C@H](C(=O)N[C@@H](CC(N)=O)C(=O)N[C@H](C(=O)NCC(=O)N[C@@H](CO)C(=O)N[C@@H](CC(N)=O)C(=O)NCC(=O)N1C[C@H](O)C[C@H]1C(N)=O)C(C)C)[C@@H](C)O)C(C)C)[C@@H](C)O [compound 64] (H-KCNTATCTVQRLAHQIYQFTDADKDNVAPPTNVGSNG[Hyp]-NH2; disulfide 2-7)	> 5000 nM	2.700%	0.012 nM
CC[C@H](C)[C@H](NC(=O)[C@H](CCC(N)=O)NC(=O)[C@H](Cc1c[nH]cn1)NC(=O)[C@H](C)NC(=O)[C@H](CC(C)C)NC(=O)[C@H](Cc1c[nH]c2ccccc12)NC(=O)[C@H](CCC(N)=O)NC(=O)[C@@H](NC(=O)[C@@H](NC(=O)[C@@H]1CSSC[C@H](NC(=O)[C@@H](N)CCCCN)C(=O)N[C@@H](CC(N)=O)C(=O)N[C@@H]([C@@H](C)O)C(=O)N[C@@H](C)C(=O)N[C@@H]([C@@H](C)O)C(=O)N1)[C@@H](C)O)C(C)C)C(=O)N[C@@H](Cc1ccc(O)cc1)C(=O)N[C@@H](CCC(N)=O)C(=O)N[C@@H](Cc1ccccc1)C(=O)N[C@H](C(=O)N[C@@H](CC(=O)O)C(=O)N[C@@H](CCCCN)C(=O)N[C@@H](CC(=O)O)C(=O)N[C@@H](CCCCN)C(=O)N[C@@H](CC(=O)O)C(=O)N[C@@H](CC(N)=O)C(=O)N[C@H](C(=O)N[C@@H](C)C(=O)N1CCC[C@H]1C(=O)N1CCC[C@H]1C(=O)N[C@H](C(=O)N[C@@H](CC(N)=O)C(=O)N[C@H](C(=O)NCC(=O)N[C@@H](CO)C(=O)N[C@@H](CC(N)=O)C(=O)NCC(=O)N1C[C@H](O)C[C@H]1C(N)=O)C(C)C)[C@@H](C)O)C(C)C)[C@@H](C)O [compound 330] (H-KCNTATCTVQWLAHQIYQFTDKDKDNVAPPTNVGSNG[Hyp]-NH2; disulfide 2-7; N-terminus assumed)	> 5000 nM	14.600%	0.008 nM
CC[C@H](C)[C@H](NC(=O)[C@H](CCC(N)=O)NC(=O)[C@H](Cc1c[nH]cn1)NC(=O)[C@H](C)NC(=O)[C@H](CC(C)C)NC(=O)[C@H](CCCNC(=N)N)NC(=O)[C@H](CCC(N)=O)NC(=O)[C@@H](NC(=O)[C@@H](NC(=O)[C@@H]1CSSC[C@H](NC(=O)CN)C(=O)N[C@@H](CCCNC(=N)N)C(=O)N[C@@H]([C@@H](C)O)C(=O)NCC(=O)N[C@@H]([C@@H](C)O)C(=O)N1)[C@@H](C)O)C(C)C)C(=O)N[C@@H](Cc1c[nH]c2ccccc12)C(=O)N[C@@H](CCC(N)=O)C(=O)N[C@@H](Cc1ccccc1)C(=O)N[C@H](C(=O)N[C@@H](CC(=O)O)C(=O)N[C@@H](CCCCN)C(=O)N[C@@H](Cc1ccccc1)C(=O)N[C@@H](CCCCN)C(=O)N[C@@H](CC(=O)O)C(=O)N[C@@H](CC(N)=O)C(=O)N[C@H](C(=O)N[C@@H](C)C(=O)N1CCC[C@H]1C(=O)N[C@@H](CCCNC(=N)N)C(=O)N[C@@H](CO)C(=O)N[C@@H](CCCCN)C(=O)N[C@H](C(=O)N[C@@H](CO)C(=O)N1CCC[C@H]1C(=O)N[C@@H](CCC(N)=O)C(=O)N[C@H](C(=O)N1C[C@H](O)C[C@H]1C(N)=O)[C@@H](C)O)[C@@H](C)CC)C(C)C)[C@@H](C)O [compound 213] (H-GCRTGTCTVQRLAHQIWQFTDKFKDNVAPRSKISPQT[Hyp]-NH2; disulfide 2-7)	> 5000 nM	6.500%	0.153 nM
CC[C@H](C)[C@H](NC(=O)[C@H](CCC(N)=O)NC(=O)[C@H](Cc1c[nH]cn1)NC(=O)[C@H](C)NC(=O)[C@H](CC(C)C)NC(=O)[C@H](CCCNC(N)=O)NC(=O)[C@H](CCC(N)=O)NC(=O)[C@@H](NC(=O)[C@@H](NC(=O)[C@@H]1CSSC[C@H](NC(=O)CN)C(=O)N[C@@H](CCCNC(=N)N)C(=O)N[C@@H]([C@@H](C)O)C(=O)NCC(=O)N[C@@H]([C@@H](C)O)C(=O)N1)[C@@H](C)O)C(C)C)C(=O)N[C@@H](Cc1ccc(O)cc1)C(=O)N[C@@H](CCC(N)=O)C(=O)N[C@@H](Cc1ccccc1)C(=O)N[C@H](C(=O)N[C@@H](CC(=O)O)C(=O)N[C@@H](CCCCN)C(=O)N[C@@H](CC(=O)O)C(=O)N[C@@H](CCCCN)C(=O)N[C@@H](CC(=O)O)C(=O)N[C@@H](CC(N)=O)C(=O)N[C@H](C(=O)N[C@@H](C)C(=O)N1CCC[C@H]1C(=O)N[C@@H](CCCNC(=N)N)C(=O)N[C@H](C(=O)N[C@@H](CC(N)=O)C(=O)N[C@H](C(=O)NCC(=O)N1CCC[C@H]1C(=O)N[C@@H](CCC(N)=O)C(=O)NCC(=O)N[C@@H](Cc1ccc(O)cc1)C(N)=O)C(C)C)[C@@H](C)O)C(C)C)[C@@H](C)O [compound 273] (H-GCRTGTCTVQ[Cit]LAHQIYQFTDKDKDNVAPRTNVGPQGY-NH2; disulfide 2-7; N-terminus assumed)	> 5000 nM	29.000%	0.021 nM
